According to patent publication US11214561B2, “Histone methyltransferase EZH2 inhibitor, preparation method and pharmaceutical use thereof” (ANCUREALL PHARMACEUTICAL (SHANGHAI) CO., LTD., priority 2017, dated 2022):

Tests used:
[1] = system: Pfeiffer (EZH2 A677G); assay: In vitro 50% growth inhibition (GI50), MTT/CCK8, Pfeiffer cells; assay type: cell-based, Human; conditions: for GI50: Homo sapiens, Pfeiffer, 240 h, Drug treatment for 10 days; for growth inhibitory activity / GI50 level against Pfeiffer, in words: EZH2 A677G mutant cells Pfeiffer
Text: (§1) In the present invention, a representative tumor cell line was selected to determine the cell growth inhibition activity of the present compound. Cell culture conditions and methods were in accordance with the requirements for each cell lines. The cells were subcultured in vitro for less than 3 generations each time, and as required, monoclone purification and identification of cell lines could be carried out.
(§2) The cell culture media used were RPMI1640 (Gibco) comprising 5-20% of fetal bovine serum (Gibco), 1% of double-antibiotic and 2 mM of glutamine.
(§3) Suspension culture cells were collected by centrifugation (1700 rpm, 3 minutes), and the supernatant was discarded and the cells were counted. According to each cell growth cycle, different concentrations of cells were prepared (1-10×10^4 cells per ml) and added to 96-well plates (Corning) with 100 μl per well, and then incubated overnight at 37° C., 5% CO2. The next day, the test compound was added to the cultured cells (2 wells in parallel). The final concentration of the solvent was less than 1/1,000. The cells were further cultured for 6 to 12 days and assayed by MTT.
(§4) The compound was stored at a concentration of 10 mM at −20° C. and diluted to two-fold or 10-fold series prior to use.
(§5) For the suspension culture cells, CCK8 was directly added to 10% of the final concentration. The cells were continually incubated for […].
(§6) The experiments were repeated 3 times and a statistical analysis of data was conducted.

[2] = system: Karpas-422 (EZH2 Y641N); assay: In vitro 50% growth inhibition (GI50), MTT/CCK8, Karpas-422 cells; assay type: cell-based; conditions: Homo sapiens, KARPAS-422, 144 h; Drug treatment for 6 days
Text: as §1, §2, §3, §4, §5, §6

[3] = system: SU-DHL-8 (EZH2 WT); assay: In vitro 50% growth inhibition (GI50), MTT/CCK8, SU-DHL-8 cells; assay type: cell-based; conditions: Homo sapiens, SU-DHL-8, 144 h; Drug treatment for 6 days
Text: as §1, §2, §3, §4, §5, §6

Structure (SMILES)	GI50 [2] [nM]	GI50 [3] [nM]	GI50 [1] [nM]	growth inhibitory activity / GI50 level against Pfeiffer, in words [1]
C=CC(=O)N1CCC(N(CC)c2cc(-c3ccc(N4CCOCC4)nc3)cc(C(=O)NCc3c(C)cc(C)[nH]c3=O)c2C)C1 (stereo not drawn) [Example 52, N-(4,6-dimethyl-2-oxo-1,2-dihydro-pyridin-3-ylmethyl)-3-[(1-acryloyl-pyrrolidin-3-yl)-ethyl-amino]-2-methyl-5-[6-(morpholin-4-yl)-pyridin-3-yl]-benzamide]	10 to 100	> 1000	1 to 10	–
C=CC(=O)N1CCC(N(CC)c2cc(F)cc(C(=O)NCc3c(C)cc(C)[nH]c3=O)c2C)C1 (stereo not drawn) [Example 2, 3-[(1-acryloyl-pyrrolidin-3-yl)-ethyl-amino]-5-fluoro-N-(4,6-dimethyl-2-oxo-1,2-dihydro-pyridin-3-ylmethyl)-2-methyl-benzamide]	10 to 100	> 1000	10 to 100	–
C=CC(=O)N1CCC(N(CC)c2cc(-c3ccc(CN4CCC(OCCOC)CC4)cc3)cc(C(=O)NCc3c(C)cc(C)[nH]c3=O)c2C)CC1 [Example 77, N-(4,6-dimethyl-2-oxo-1,2-dihydro-pyridin-3-ylmethyl)-5-[(1-acryloyl-piperidin-4-yl)-ethyl-amino]-4-methyl-4′-[4-(2-methoxyethyloxy)-piperidin-1-ylmethyl]-[1,1′-biphenyl]-3-carboxamide]	10 to 100	> 1000	< 1	subnanomolar level
C=CC(=O)N1CCC(N(CC)c2cc(-c3ccc(CN(C)C)cc3)cc(C(=O)NCc3c(C)cc(C)[nH]c3=O)c2C)C1 (stereo not drawn) [Example 19, N-(4,6-dimethyl-2-oxo-1,2-dihydro-pyridin-3-ylmethyl)-5-[(1-acryloyl-pyrrolidin-3-yl)-ethyl-amino]-4′-(dimethylaminomethyl)-4-methyl-biphenyl-3-carboxamide]	100 to 1000	> 1000	10 to 100	–
C=CC(=O)N1CCC(N(CC)c2cc(Br)cc(C(=O)NCc3c(C)cc(C)[nH]c3=O)c2C)C1 (stereo not drawn) [Example 1, 3-[(1-acryloyl-pyrrolidin-3-yl)-ethyl-amino]-5-bromo-N-(4,6-dimethyl-2-oxo-1,2-dihydro-pyridin-3-ylmethyl)-2-methyl-benzamide]	10 to 100	> 1000	1 to 10	–
C=CC(=O)N1CCC(N(CC)c2cc(-c3ccc(OCCN4CCOCC4)cc3)cc(C(=O)NCc3c(C)cc(C)[nH]c3=O)c2C)C1 (stereo not drawn) [Example 48, N-(4,6-dimethyl-2-oxo-1,2-dihydro-pyridin-3-ylmethyl)-5-[(1-acryloyl-pyrrolidin-3-yl)-ethyl-amino]-4-methyl-4′-[2-(morpholin-4-yl)-ethoxy]-[1,1′-biphenyl]-3-carboxamide]	100 to 1000	> 1000	10 to 100	–

Continued, in another order:

GI50 [2] [nM]	GI50 [3] [nM]	Structure (SMILES)	GI50 [1] [nM]	growth inhibitory activity / GI50 level against Pfeiffer, in words [1]
10 to 100	> 1000	C=CC(=O)N1CCC(N(CC)c2cc(-c3cccc(CN4CCCN(C)CC4)c3)cc(C(=O)NCc3c(C)cc(C)[nH]c3=O)c2C)CC1 [Example 75, N-(4,6-dimethyl-2-oxo-1,2-dihydro-pyridin-3-ylmethyl)-5-[(1-acryloyl-piperidin-4-yl)-ethyl-amino]-4-methyl-3′-(4-methylhomopiperazin-1-ylmethyl)-[1,1′-biphenyl]-3-carboxamide]	1 to 10	–
10 to 100	> 1000	C=CC(=O)N1CCC(N(CC)c2cc(-c3cccc(CN4CCOCC4)c3)cc(C(=O)NCc3c(C)cc(C)[nH]c3=O)c2C)CC1 [Example 70, N-(4,6-dimethyl-2-oxo-1,2-dihydro-pyridin-3-ylmethyl)-5-[(1-acryloyl-piperidin-4-yl)-ethyl-amino]-4-methyl-3′-(morpholin-4-ylmethyl)-[1,1′-biphenyl]-3-carboxamide]	1 to 10	–
10 to 100	> 1000	C=CC(=O)N1CCC(N(CC)c2cc(-c3ccc(CN4CCC(OC)CC4)cc3)cc(C(=O)NCc3c(C)cc(C)[nH]c3=O)c2C)CC1 [Example 65, N-(4,6-dimethyl-2-oxo-1,2-dihydro-pyridin-3-ylmethyl)-5-[(1-acryloyl-piperidin-4-yl)-ethyl-amino]-4-methyl-4′-(4-methoxypiperidin-1-ylmethyl)-[1,1′-biphenyl]-3-carboxamide]	< 1	subnanomolar level
10 to 100	> 1000	C=CC(=O)N1CCC(N(CC)c2cc(-c3ccc(CN4CCC5(CCCO5)CC4)cc3)cc(C(=O)NCc3c(C)cc(C)[nH]c3=O)c2C)CC1 [Example 87, N-(4,6-dimethyl-2-oxo-1,2-dihydro-pyridin-3-ylmethyl)-5-[(1-acryloyl-piperidin-4-yl)-ethyl-amino]-4-methyl-4′-(1-oxa-8-aza-spiro[4.5]decan-8-ylmethyl)-[1,1′-biphenyl]-3-carboxamide]	< 1	subnanomolar level
